Our source for the TC and TG values is patent US12397023B2, “Composition comprising Lactococcus chungangensis for prevention or treatment of fatty liver or metabolic syndrome” (CHUNG ANG UNIVERSITY INDUSTRY ACADEMIC COOPERATION …, priority 2018, dated 2025).

This test relates to HFD-induced obese mice. In words: Serum lipids (TC, TG, HDL, LDL). The test is classed as in vivo, C57BL/6J mouse. The settings on record: 12 weeks, mean ± SEM. As for the experimental part:
During the experimental period, the experimental group had free access to diet and drinking water. […] The same volume of PBS was administered to the negative control group and the positive control group. […] All mice were gavaged once a week for 12 weeks.
Blood samples were collected after 12 weeks of treatment from two mice from each experimental group in centrifuge tubes containing EDTA. Blood was drawn by puncturing the orbit through the orbit and within the orbit. Samples were centrifuged at 1200× for 15 minutes and incubated at 4° C. for 10 minutes. Serum aspartate aminotransferase (AST), alanine aminotransferase (ALT), TC, high-density lipoprotein (HDL), low-density lipoprotein (LDL) and TG were analyzed in the serum supernatant using an appropriate assay kit (Green Cross Biopharmaceutical, Yongin, Korea). The same samples were also used for hormone measurements.

Take `CCC(C)(C)C(=O)O[C@H]1C[C@@H](C)C=C2C=C[C@H](C)[C@H](CC[C@@H]3C[C@@H](O)CC(=O)O3)[C@H]21` [Simvastatin]: the TC was determined as 51.50 ± 1.50 mg/dL and the TG came out at 30.00 ± 5.00 mg/dL.
